Assay results reported in ChEMBL document CHEMBL1909046, “DrugMatrix in vitro pharmacology data”.

Columns and labels:
B2 bradykinin receptor = target: T1, B2 bradykinin receptor (Homo sapiens, UniProt P30411); assay type: cell membranes, Membrane; details: chem-1; further: in other assays of this panel Not Active means under 50% inhibition at 10 µM
T1 sequence (P30411 whole entry): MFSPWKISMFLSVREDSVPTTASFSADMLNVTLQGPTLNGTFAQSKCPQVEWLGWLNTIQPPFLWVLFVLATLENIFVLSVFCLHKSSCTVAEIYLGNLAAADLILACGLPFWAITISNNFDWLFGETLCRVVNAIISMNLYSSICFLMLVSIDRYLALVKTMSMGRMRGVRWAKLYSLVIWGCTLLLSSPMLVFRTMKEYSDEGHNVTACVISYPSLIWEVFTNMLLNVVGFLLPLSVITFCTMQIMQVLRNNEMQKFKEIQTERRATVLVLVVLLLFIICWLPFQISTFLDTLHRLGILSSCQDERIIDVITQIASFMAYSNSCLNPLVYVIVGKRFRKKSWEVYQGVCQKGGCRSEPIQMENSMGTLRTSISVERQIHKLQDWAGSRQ

[1] = target: T2, Receptor-type tyrosine-protein phosphatase C (Homo sapiens, UniProt P08575); parameters: species or system Escherichia coli;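 further: inhibition of CD45 enzyme activity measured using DiFMUP as substrate; in other assays of this panel Not Active means under 50% inhibition at 10 µM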
T2 sequence (P08575 whole entry): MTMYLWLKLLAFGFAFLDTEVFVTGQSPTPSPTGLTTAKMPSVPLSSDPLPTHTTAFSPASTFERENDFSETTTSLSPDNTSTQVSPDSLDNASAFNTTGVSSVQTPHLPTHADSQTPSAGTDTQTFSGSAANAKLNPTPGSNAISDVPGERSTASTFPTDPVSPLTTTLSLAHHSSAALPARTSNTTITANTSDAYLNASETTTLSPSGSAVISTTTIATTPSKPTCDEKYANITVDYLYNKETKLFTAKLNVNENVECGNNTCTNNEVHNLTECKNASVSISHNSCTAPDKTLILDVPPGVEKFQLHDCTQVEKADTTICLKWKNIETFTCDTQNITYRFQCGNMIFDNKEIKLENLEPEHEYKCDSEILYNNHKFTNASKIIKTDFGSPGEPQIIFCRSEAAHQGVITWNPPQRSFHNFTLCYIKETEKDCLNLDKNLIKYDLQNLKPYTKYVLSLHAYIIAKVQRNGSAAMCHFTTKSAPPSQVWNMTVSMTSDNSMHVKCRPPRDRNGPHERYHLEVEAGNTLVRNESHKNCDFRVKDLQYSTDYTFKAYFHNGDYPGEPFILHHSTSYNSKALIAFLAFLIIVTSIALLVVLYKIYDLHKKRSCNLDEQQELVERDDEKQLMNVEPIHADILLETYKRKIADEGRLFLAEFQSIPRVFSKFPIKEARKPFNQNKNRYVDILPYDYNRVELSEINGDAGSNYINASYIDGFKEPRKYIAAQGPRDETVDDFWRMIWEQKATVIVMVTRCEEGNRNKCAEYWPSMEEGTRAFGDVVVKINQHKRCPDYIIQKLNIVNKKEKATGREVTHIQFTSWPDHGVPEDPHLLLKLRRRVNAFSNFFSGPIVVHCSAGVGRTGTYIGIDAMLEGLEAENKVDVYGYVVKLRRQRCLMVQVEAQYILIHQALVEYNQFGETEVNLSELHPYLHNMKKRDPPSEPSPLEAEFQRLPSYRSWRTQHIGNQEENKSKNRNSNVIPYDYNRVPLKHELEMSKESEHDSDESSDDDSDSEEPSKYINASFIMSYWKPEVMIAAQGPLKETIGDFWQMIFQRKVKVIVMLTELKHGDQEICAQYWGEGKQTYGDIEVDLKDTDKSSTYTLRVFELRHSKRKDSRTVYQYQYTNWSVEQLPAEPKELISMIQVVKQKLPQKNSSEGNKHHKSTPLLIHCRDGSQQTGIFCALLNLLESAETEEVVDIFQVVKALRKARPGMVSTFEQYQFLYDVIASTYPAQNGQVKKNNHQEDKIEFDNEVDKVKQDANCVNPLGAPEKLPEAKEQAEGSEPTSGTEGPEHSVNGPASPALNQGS

D(4) dopamine receptor = target: T3, D(4) dopamine receptor (Homo sapiens, UniProt P21917); test: DRUGMATRIX: Dopamine D4.2 radioligand binding (ligand: [3H] Spiperone); assay type: cell membranes, CHO-K1, Membrane; details: cho-k1; Not Active = under 50% inhibition at 10 µM
T3 sequence (P21917 whole entry): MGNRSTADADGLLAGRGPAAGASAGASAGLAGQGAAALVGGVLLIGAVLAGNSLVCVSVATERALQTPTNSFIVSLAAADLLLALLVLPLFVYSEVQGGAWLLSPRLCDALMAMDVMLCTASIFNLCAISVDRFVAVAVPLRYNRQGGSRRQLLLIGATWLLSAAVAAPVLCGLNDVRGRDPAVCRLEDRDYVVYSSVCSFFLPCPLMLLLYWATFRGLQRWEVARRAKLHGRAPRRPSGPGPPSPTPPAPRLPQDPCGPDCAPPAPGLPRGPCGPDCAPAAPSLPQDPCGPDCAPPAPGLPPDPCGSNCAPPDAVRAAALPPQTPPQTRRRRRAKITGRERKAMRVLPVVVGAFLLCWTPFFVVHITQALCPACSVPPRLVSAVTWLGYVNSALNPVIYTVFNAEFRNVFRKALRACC

[2] = DRUGMATRIX: GABAA, Flunitrazepam, Central radioligand binding (ligand: [3H] Flunitrazepam); assay type: cell membranes, Rattus norvegicus, Wistar, Brain, Membrane; details: Not Active = under 50% inhibition at 10 µM
Insulin receptor = Insulin receptor (Rattus norvegicus, UniProt P15127); assay type: cell membranes, Wistar, Liver, Membrane; further: in other assays of this panel Not Active means under 50% inhibition at 10 µM
[3] = target: T4, Amine oxidase [flavin-containing] A (Homo sapiens, UniProt P21397); test: DRUGMATRIX: Monoamine Oxidase MAO-A enzyme inhibition (substrate: Kynuramine); parameters: species or system BTI-TN-5B1-4; details: bti-tn-5b1-4; Not Active = under 50% inhibition at 10 µM
T4 sequence (P21397 whole entry): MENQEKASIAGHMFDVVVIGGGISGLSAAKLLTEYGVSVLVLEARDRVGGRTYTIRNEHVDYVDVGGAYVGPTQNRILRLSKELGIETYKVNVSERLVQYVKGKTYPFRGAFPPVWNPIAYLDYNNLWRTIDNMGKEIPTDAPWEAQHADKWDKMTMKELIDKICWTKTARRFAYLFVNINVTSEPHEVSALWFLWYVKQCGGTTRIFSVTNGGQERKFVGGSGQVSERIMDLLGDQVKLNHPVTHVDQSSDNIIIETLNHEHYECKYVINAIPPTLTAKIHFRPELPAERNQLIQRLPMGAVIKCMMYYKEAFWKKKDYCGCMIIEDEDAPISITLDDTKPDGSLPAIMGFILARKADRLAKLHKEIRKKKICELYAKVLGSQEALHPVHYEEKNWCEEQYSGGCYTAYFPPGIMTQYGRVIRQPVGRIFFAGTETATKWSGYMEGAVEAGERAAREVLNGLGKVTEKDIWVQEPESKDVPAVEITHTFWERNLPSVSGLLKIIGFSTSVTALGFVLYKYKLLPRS

Sequence of Insulin receptor (P15127 27-759 limits assumed): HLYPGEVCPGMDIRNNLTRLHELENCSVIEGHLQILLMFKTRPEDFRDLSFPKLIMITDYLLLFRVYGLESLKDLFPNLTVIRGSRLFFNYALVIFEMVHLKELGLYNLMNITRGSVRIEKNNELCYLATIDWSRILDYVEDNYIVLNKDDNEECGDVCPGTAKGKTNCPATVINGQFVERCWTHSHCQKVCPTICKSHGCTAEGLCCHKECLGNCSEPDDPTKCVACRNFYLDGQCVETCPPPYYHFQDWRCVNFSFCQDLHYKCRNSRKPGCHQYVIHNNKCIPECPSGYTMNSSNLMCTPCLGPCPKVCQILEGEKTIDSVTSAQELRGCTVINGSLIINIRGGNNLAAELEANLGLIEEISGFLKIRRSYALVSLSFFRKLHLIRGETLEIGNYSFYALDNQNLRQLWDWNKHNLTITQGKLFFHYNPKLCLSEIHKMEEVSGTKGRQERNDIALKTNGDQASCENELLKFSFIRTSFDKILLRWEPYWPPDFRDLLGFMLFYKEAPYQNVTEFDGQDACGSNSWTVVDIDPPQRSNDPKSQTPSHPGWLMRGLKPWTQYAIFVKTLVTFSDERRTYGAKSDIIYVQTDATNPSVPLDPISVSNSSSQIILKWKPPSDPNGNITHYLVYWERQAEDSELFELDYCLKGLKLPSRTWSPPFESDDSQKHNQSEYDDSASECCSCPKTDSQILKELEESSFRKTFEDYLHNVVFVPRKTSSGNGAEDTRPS
Sequence of Insulin receptor (P15127 764-1383 limits assumed): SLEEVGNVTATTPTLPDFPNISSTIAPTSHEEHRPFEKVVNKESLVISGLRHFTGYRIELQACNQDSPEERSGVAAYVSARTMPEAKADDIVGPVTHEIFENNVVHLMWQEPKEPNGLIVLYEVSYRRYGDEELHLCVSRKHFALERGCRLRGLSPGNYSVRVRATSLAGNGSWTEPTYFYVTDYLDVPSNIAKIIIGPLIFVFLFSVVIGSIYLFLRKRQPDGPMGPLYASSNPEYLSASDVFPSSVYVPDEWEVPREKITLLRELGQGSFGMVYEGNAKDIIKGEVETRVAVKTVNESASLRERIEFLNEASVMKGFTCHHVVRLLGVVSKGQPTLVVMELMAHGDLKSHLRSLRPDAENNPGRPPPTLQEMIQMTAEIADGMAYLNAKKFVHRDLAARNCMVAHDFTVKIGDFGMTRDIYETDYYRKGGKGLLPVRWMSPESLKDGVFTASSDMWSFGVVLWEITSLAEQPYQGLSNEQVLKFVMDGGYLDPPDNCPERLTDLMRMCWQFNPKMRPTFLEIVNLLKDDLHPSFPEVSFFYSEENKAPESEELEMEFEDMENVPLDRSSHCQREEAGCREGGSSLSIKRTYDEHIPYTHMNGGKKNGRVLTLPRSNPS

COC(=O)[C@H](c1ccccc1Cl)N1CCc2sccc2C1 [CLOPIDOGREL]
Not Active: IC50 (B2 bradykinin receptor) | IC50 [1] | IC50 (D(4) dopamine receptor) | IC50 [2] | Ki [2] | IC50 (Insulin receptor) | IC50 [3]

C[C@]12CCC(=O)C=C1CC[C@@H]1[C@@H]2C(=O)C[C@@]2(C)[C@H]1CC[C@]2(O)C(=O)CO [CORTISONE]
Not Active: IC50 (B2 bradykinin receptor) | IC50 [1] | IC50 (D(4) dopamine receptor) | IC50 [2] | Ki [2] | IC50 (Insulin receptor) | IC50 [3]

Cc1ccccc1N1CCN(CCc2nnc3n2CCCC3)CC1 [DAPIPRAZOLE]
Not Active: IC50 (B2 bradykinin receptor) | IC50 [1] | IC50 (D(4) dopamine receptor) | IC50 [2] | Ki [2] | IC50 (Insulin receptor) | IC50 [3]

CC1=Nc2ccc(Cl)cc2S(=O)(=O)N1 [DIAZOXIDE]
Not Active: IC50 (B2 bradykinin receptor) | IC50 [1] | IC50 (D(4) dopamine receptor) | IC50 [2] | Ki [2] | IC50 (Insulin receptor) | IC50 [3]

CC(=O)OCC(=O)[C@@]1(OC(C)=O)[C@@H](C)C[C@H]2[C@@H]3C[C@H](F)C4=CC(=O)C=C[C@]4(C)[C@@]3(F)[C@@H](O)C[C@@]21C [DIFLORASONE DIACETATE]
Not Active: IC50 (B2 bradykinin receptor) | IC50 [1] | IC50 (D(4) dopamine receptor) | IC50 [2] | Ki [2] | IC50 (Insulin receptor) | IC50 [3]

COc1ccc([C@@H]2Sc3ccccc3N(CCN(C)C)C(=O)[C@@H]2OC(C)=O)cc1 [DILTIAZEM]
Not Active: IC50 (B2 bradykinin receptor) | IC50 [1] | IC50 (D(4) dopamine receptor) | IC50 [2] | Ki [2] | IC50 (Insulin receptor) | IC50 [3]

CCc1ccc(C(=O)C(C)CN2CCCCC2)cc1 (centres undefined) [EPERISONE]
Not Active: IC50 (B2 bradykinin receptor) | IC50 [1] | IC50 (D(4) dopamine receptor) | IC50 [2] | Ki [2] | IC50 (Insulin receptor) | IC50 [3]

C=C1CC[C@H](O)C/C1=C/C=C1\CCC[C@]2(C)[C@@H]([C@H](C)/C=C/[C@H](C)C(C)C)CC[C@@H]12 [ERGOCALCIFEROL]
Not Active: IC50 (B2 bradykinin receptor) | IC50 [1] | IC50 (D(4) dopamine receptor) | IC50 [2] | Ki [2] | IC50 (Insulin receptor) | IC50 [3]

CN1C[C@H](C(=O)N[C@]2(C)O[C@@]3(O)[C@@H]4CCCN4C(=O)[C@H](Cc4ccccc4)N3C2=O)C=C2c3cccc4[nH]cc(c34)C[C@H]21 [ERGOTAMINE]
Not Active: IC50 (B2 bradykinin receptor) | IC50 [1] | IC50 (D(4) dopamine receptor) | IC50 [2] | Ki [2] | IC50 (Insulin receptor) | IC50 [3]

CCc1cccc2c3c([nH]c12)C(CC)(CC(=O)O)OCC3 (centres undefined) [ETODOLAC]
Not Active: IC50 (B2 bradykinin receptor) | IC50 [1] | IC50 (D(4) dopamine receptor) | IC50 [2] | Ki [2] | IC50 (Insulin receptor) | IC50 [3]

Cc1c(-c2ccccc2)oc2c(C(=O)OCCN3CCCCC3)cccc2c1=O [FLAVOXATE]
Not Active: IC50 (B2 bradykinin receptor) | IC50 [1] | IC50 (D(4) dopamine receptor) | IC50 [2] | Ki [2] | IC50 (Insulin receptor) | IC50 [3]

Nc1nc(=O)[nH]cc1F [FLUCYTOSINE]
Not Active: IC50 (B2 bradykinin receptor) | IC50 [1] | IC50 (D(4) dopamine receptor) | IC50 [2] | Ki [2] | IC50 (Insulin receptor) | IC50 [3]

O=C1OC2(c3ccc(O)cc3Oc3cc(O)ccc32)c2ccccc21 [FLUORESCEIN]
Not Active: IC50 (B2 bradykinin receptor) | IC50 [1] | IC50 (D(4) dopamine receptor) | IC50 [2] | Ki [2] | IC50 (Insulin receptor) | IC50 [3]

CC(=O)[C@@]1(O)CC[C@H]2[C@@H]3C[C@H](C)C4=CC(=O)C=C[C@]4(C)[C@@]3(F)[C@@H](O)C[C@@]21C [FLUOROMETHOLONE]
Not Active: IC50 (B2 bradykinin receptor) | IC50 [1] | IC50 (D(4) dopamine receptor) | IC50 [2] | Ki [2] | IC50 (Insulin receptor) | IC50 [3]

O=c1[nH]cc(F)c(=O)[nH]1 [FLUOROURACIL]
Not Active: IC50 (B2 bradykinin receptor) | IC50 [1] | IC50 (D(4) dopamine receptor) | IC50 [2] | Ki [2] | IC50 (Insulin receptor) | IC50 [3]

CC(C)n1c(/C=C/C(O)CC(O)CC(=O)O)c(-c2ccc(F)cc2)c2ccccc21 (centres undefined) [FLUVASTATIN]
Not Active: IC50 (B2 bradykinin receptor) | IC50 [1] | IC50 (D(4) dopamine receptor) | IC50 [2] | Ki [2] | IC50 (Insulin receptor) | IC50 [3]

O=C1OCCN1/N=C/c1ccc([N+](=O)[O-])o1 [FURAZOLIDONE]
Not Active: IC50 (B2 bradykinin receptor) | IC50 [1] | IC50 (D(4) dopamine receptor) | IC50 [2] | Ki [2] | IC50 (Insulin receptor) | IC50 [3]
